# Source: patent US8389739B1, “Modulators of retinoid-related orphan receptor gamma” (Orphagen Pharmaceuticals, priority 2006, dated 2013)
# “Also recorded” adds a separate entry of the source. Where two headings read alike, the source gives them in different places.
# Key:
# human RORγ = biological target: T1, human RORγ (Homo sapiens, UniProt P51449); assay: Transcriptional assay of human RORγ (Gal4-hRORγ); type: cell-based; conditions: Table 4B
# T1 construct: expressed in transfected cells; host or cells: CHO cells, transient transfection
# T1 sequence (P51449 253-518): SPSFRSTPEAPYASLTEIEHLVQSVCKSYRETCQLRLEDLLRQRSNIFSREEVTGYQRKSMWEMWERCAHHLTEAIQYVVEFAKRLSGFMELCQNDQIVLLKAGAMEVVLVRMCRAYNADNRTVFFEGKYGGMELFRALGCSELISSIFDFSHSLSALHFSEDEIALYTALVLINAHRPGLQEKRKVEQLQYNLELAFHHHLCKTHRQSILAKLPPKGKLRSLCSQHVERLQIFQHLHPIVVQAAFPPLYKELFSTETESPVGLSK
# Procedure: The complete Gal4-hRORγ nucleotide sequence is shown below:
# (§1) A firefly luciferase reporter gene for Gal4 DBD hybrid receptors, such as Gal4-RORγ, contains five copies of the Gal4 17-mer response element in its promoter and the coding sequence for firefly luciferase (pG5-luc, Promega). CHO (Chinese Hamster Ovary) cells were cultured in Ham's F12 medium supplemented with 10% fetal calf serum (Gemini Biologicals), 10 μg/ml penicillin and streptomycin, and were maintained in a humidified 37° C. incubator (Thermo Electron, Steri-Cycle) with 5% CO2. 24 hours before transfection, cells were plated in T175 flasks (5×10^6 cells/flask) or T75 flasks (1.7×10^6 cells/flask). Transient transfection of CHO cells was performed using TransIT-CHO reagents (Minis, Madison, Wis.) with a mixing ratio of 2:6:1 between plasmid DNA (in μg), TransIT-CHO (in μl) and CHO-mojo (in μl).
# (§2) Plates are maintained at 37° C. in a humidified atmosphere with 7% CO2 overnight. Four (4) hours after cell seeding, compounds dissolved in DMSO at 10 mM were added to cells at final concentrations of 20 micromolar (μM) to 20 nanomolar (nM) in 0.2% DMSO in triplicate plates. Approximately 40 hours later, cytotoxicity in the assay well was characterized by addition of the dye resazurin (O'Brien, Wilson et al. 2000) to a final concentration of 3 μM. […] Percent viability was determined as 2 hour fluorescence, minus background at t=0 hours, normalized to DMSO controls. For detection of luciferase activity, media was removed from plates after the measurement of resazurin conversion, and SteadyLite luciferase reagent (Perkin-Elmer) was added (30 μl/well). Luminescence is detected with a Victor 2-V plate reader (Perkin-Elmer) and normalized to luciferase activity of DMSO control wells alone.
# [1] = test system: TH-17 cell differentiation from naïve CD4+ T cells; assay: Differentiation of naïve CD4+ T cells, intracellular IL-17/IFN-γ staining by FACS (TH-17 protocol, TGFβ + IL-6); type: cell-based, mouse; conditions: for Cell Frequency (%) Th-17 Differentiation IFN-γ^+ / Cell Frequency (%) Th-17 Differentiation IL-17^+: Table 11, 3 μM; for Cell Frequency (%) Th-17 Differentiation IFN-γ^+: DMSO vehicle 1.03%; for Cell Frequency (%) Th-17 Differentiation IL-17^+: DMSO vehicle 3.81%
# [2] = test system: human IL-17 release from PBMCs; assay: Human IL-17 release from Con A stimulated PBMCs (ELISA); type: cell-based; conditions: 1 μg/ml Con A, 3 days; for Con A stimulated IL-17 release into culture medium: 3 μM; for reversal of antagonist effect on IL-17 release by agonist: 3 μM each
# Excerpt: We also investigated whether human IL-17 is subject to regulation by RORγ ligands.
# [3] = biological target: T2, hVDR (Vitamin D receptor) (Homo sapiens, UniProt P11473); assay: Crossreactive receptor transcriptional assay (Gal4 hybrid); type: cell-based
# T2 construct: 90-427; expressed in transfected cells; host or cells: CHO cells, transient transfection
# T2 sequence (P11473 90-427): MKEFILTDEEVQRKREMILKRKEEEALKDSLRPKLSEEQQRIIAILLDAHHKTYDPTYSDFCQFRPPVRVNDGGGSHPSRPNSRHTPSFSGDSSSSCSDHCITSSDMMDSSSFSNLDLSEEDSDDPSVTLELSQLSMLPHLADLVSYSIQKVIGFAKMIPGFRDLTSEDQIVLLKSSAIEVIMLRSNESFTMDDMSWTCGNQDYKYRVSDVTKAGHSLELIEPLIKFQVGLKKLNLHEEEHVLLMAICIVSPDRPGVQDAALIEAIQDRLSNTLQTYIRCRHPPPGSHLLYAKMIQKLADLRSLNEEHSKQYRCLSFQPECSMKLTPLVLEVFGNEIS
# Procedure: as §1, with “cells/flask).” for “cells/flask). Transient transfection of CHO cells was performed using TransIT-CHO reagents (Minis, Madison, Wis.) with a mixing ratio of 2:6:1 between plasmid DNA (in μg), TransIT-CHO (in μl) and CHO-mojo (in μl).”
# as §2, with “Four (4) hours after cell seeding, compounds dissolved in DMSO at 10 mM were added to cells at final concentrations of 20 micromolar (μM) to 20 nanomolar (nM) in 0.2% DMSO in triplicate plates.” left out
# [4] = test system: TH1 cell differentiation from naïve CD4+ T cells; assay: Differentiation of naïve CD4+ T cells with IL-12 (Th-1 protocol), IFN-γ staining by FACS; type: cell-based, mouse; conditions: for effect on TH1 cell differentiation: in the presence of IL-12
# [5] = test system: IL-22 release in lymph node cultures; assay: Lymph node cell cultures from MOG-immunized C57BL/6 mice, IL-22 ELISA; type: cell-based
# Procedure: FIGS. 15A-B. IL-22 release in lymph node cultures is regulated by RORγ ligands. Lymph node cells from MOG-immunized C57BL/6 mice were cultured for 3 days with 30 μg/ml MOG, […] IL-23 (FIG. 15A) and 3 μM compounds (FIG. 15B). Culture media were analyzed by IL-22 ELISA.
# ELISA kits for mouse IL-17 and human IL-17 were from eBioscience (San Diego, Calif.). ELISA assays were performed following the manufacturer's protocol. Certain samples were diluted 20-fold to avoid maximization of enzymatic signals. For mouse IL-22 ELISA, antibodies and standards were from Antigenix America (Huntington Station, N.Y.) and accessory components were from eBioscience. The IL-22 assay protocol was similar to that of the IL-17 assays.
# The proinflammatory cytokine IL-22 is also expressed in Th-17 cells. […] In addition, IL-22 seems to have 30-50 fold higher levels than IL-17. […] This is illustrated in FIG. 15.
# [6] = Table 6, read-out: Potency (EC50) at hVDR
# [7] = Table 9, 3 μM (combination 3 μM each), 10 ng/ml IL-12, DMSO 36.3%
# [8] = Table 9, 3 μM (combination 3 μM each), 4 ng/ml TGFβ and 20 ng/ml IL-6, DMSO 2.32%
# [9] = Table 9, 3 μM (combination 3 μM each), DMSO 1.60%
smiles,measurement,setting,value
"CC(=O)O[C@H]1CC[C@@]2(C)C(CC[C@]3(C)C2C(=O)C=C2C4[C@@H](C)[C@H](C)CC[C@]4(C(=O)O)CC[C@]23C)C1(C)C (stereo in doubt) [OR-13571, 10-Acetoxy-1,2,6a,6b,9,9,12a-heptamethyl-13-oxo-1,3,4,5,6,6a,6b,7,8,8a,9,10,11,12,12a,12b,13,14b-octadecahydro-2H-picene-4a-carboxylic acid]",EC50,human RORγ,0.2 µM
same,effect on TH-17 cell differentiation,[1],exerted a similar effect on TH-17 differentiation as OR-885 and OR-1050; also recorded: inhibits TH-17 differentiation
same,Cell Frequency (%) Th-17 Differentiation IFN-γ^+,[1],0.93%
same,Cell Frequency (%) Th-17 Differentiation IL-17^+,[1],1.42%
same,Con A stimulated IL-17 release into culture medium,[2],inhibited
same,EC50,[3]; [6],> 10 µM
"O=S(=O)(c1ccccc1)N(CC(F)(F)F)c1ccc(C(O)(C(F)(F)F)C(F)(F)F)cc1 [Compound T0901317, N-(2,2,2-Trifluoro-ethyl)-N-[4-(2,2,2-trifluoro-1-hydroxy-1-trifluoromethyl-ethyl)-phenyl]-benzenesulfonamide, reference compound]",EC50,[3]; [6],> 10 µM
"C[C@@H]1CC[C@@]2(OC1)O[C@H]1C[C@H]3[C@@H]4CC[C@H]5C[C@@H](O)CC[C@]5(C)[C@H]4C[C@@H](O)[C@]3(C)[C@H]1[C@@H]2C [OR-885, 5α,20α, 22α, 25D-SPIROSTAN-3β, 12β-DIOL]",Cell Frequency (%) Th-1 Protocol IFN-γ^+,"[4]; Table 10, 3 μM, DMSO vehicle 29.7%",34.2%
same,EC50,human RORγ,5.1 µM
same,"EC50 (μM), transcriptional assay of human RORγ",human RORγ,significantly less potent at hRORγ
same,IL-22 production in LN cultures,[5],inhibited
same,Cell Frequency (%) TH-17 Protocol IFN-γ^+,[1],1.45%
same,Cell Frequency (%) TH-17 Protocol IL-17^+,[1],0.52%
same,effect on TH-17 cell differentiation,[1],blocks the differentiation of TH-17 cells
same,reversal of antagonist effect on IL-17 release by agonist,[2],partially reversible by OR-12872
same,EC50,[3],> 10 µM
"CCN(c1ccc(C(O)(C(F)(F)F)C(F)(F)F)cc1)S(=O)(=O)c1ccc([N+](=O)[O-])cc1 [OR-1050, N-Ethyl-4-nitro-N-[4-(2,2,2-trifluoro-1-hydroxy-1-trifluoromethyl-ethyl)-phenyl]-benzenesulfonamide]",Cell Frequency (%) Th-1 Protocol IFN-γ^+,[4]; [7],37.4%
same,effect on TH1 cell differentiation,[4]; 3 μM,does not inhibit TH1 differentiation
same,EC50,human RORγ,0.4 µM
same,IL-22 production in LN cultures,[5]; 3 μM each (FIG. 15),inhibited
same,effect on TH-17 cell differentiation,[1],significantly inhibited TH-17 cell differentiation in a dose-dependent manner; also recorded: decreases the proportion of IL-17^+ cells
same,Cell Frequency (%) TH-17 Protocol IL-17^+,[1]; [8],0.44%
same,Cell Frequency (%) TH-17 Protocol IFN-γ^+,[1]; [9],1.42%
same,Cell Frequency (%) Th-17 Differentiation IFN-γ^+,[1],1.09%
same,Cell Frequency (%) Th-17 Differentiation IL-17^+,[1],1.47%
same,Con A stimulated IL-17 release into culture medium,[2],inhibited
same,EC50,[3]; [6],> 10 µM
"COc1c(C=NNc2nc(N3CCCCC3)nc(N3CCCCC3)n2)cccc1[N+](=O)[O-] [OR-2161, N-(4,6-Di-piperidin-1-yl-[1,3,5]triazin-2-yl)-N′-(2-methoxy-3-nitro-benzylidene)-hydrazine]",EC50,human RORγ,1 µM
same,EC50,[3]; [6],> 10 µM
"COC(C)CCC(C)C1CCC2C3CC(O)C4CC(O)CCC4(C)C3CCC12C (stereo not drawn) [OR-12872, 17-(4-Methoxy-1-methyl-pentyl)-10,13-dimethyl-hexadecahydro-cyclopenta[a]phenanthrene-3,6-diol]",Cell Frequency (%) Th-1 Protocol IFN-γ^+,[4]; [7],41.4%
same,Cell Frequency (%) Th-1 Protocol IFN-γ^+,"[4]; Table 10, 1 μM, DMSO vehicle 29.7%",30.8%
same,effect on TH1 cell differentiation,[4]; 3 μM,Neither 3 μM OR-1050 nor 3 μM OR-12872 had an effect on the frequency of TH1 cell differentiation
same,IL-22 production in LN cultures,[5]; 3 μM each (FIG. 15),enhanced
same,effect on TH-17 cell differentiation,[1],stimulatory; also recorded: able to reverse the effect of OR-1050; also recorded: increases the fraction of IL-17^+ cells
same,elevation of TH-17 frequency by agonist alone,[1]; 3 μM (FIG. 8),60%
same,increase of TH-17 frequency from the lower baseline produced by OR-1050,[1]; 3 μM agonist in the presence of 3 μM OR-1050 (FIG. 8),400%
same,Cell Frequency (%) TH-17 Protocol IL-17^+,[1]; [8],3.91%
same,Cell Frequency (%) TH-17 Protocol IFN-γ^+,[1]; [9],1.37%
same,Cell Frequency (%) TH-17 Protocol IFN-γ^+,"[1]; Table 10, 1 μM, DMSO vehicle 0.71%",0.65%
same,Cell Frequency (%) TH-17 Protocol IL-17^+,"[1]; Table 10, 1 μM, DMSO vehicle 2.46%",3.96%
same,reversal of antagonist effect on IL-17 release by agonist,[2],partly reverse the effects of OR-1050 and OR-13571
same,Con A stimulated IL-17 release into culture medium,[2],does not significantly alter IL-17 release
same,EC50,[3]; [6],> 10 µM
"CCn1c(CNc2ccc(Cl)cc2)nnc1SCC(=O)Nc1cccc2ccccc12 [OR-133008, 2-{5-[(4-Chloro-phenylamino)-methyl]-4-ethyl-4H-[1,2,4]triazol-3-ylsulfanyl}-N-naphthalen-1-yl-acetamide]",EC50,human RORγ,6.8 µM
same,EC50,[3]; [6],> 10 µM
